For 13 compounds, IC50 and Ki results are on record in ChEMBL document CHEMBL1909046, “DrugMatrix in vitro pharmacology data”.

Test [1] deals with T1, Neuropeptide Y receptor type 1 (Homo sapiens, UniProt P25929).
T1 sequence (P25929 whole entry): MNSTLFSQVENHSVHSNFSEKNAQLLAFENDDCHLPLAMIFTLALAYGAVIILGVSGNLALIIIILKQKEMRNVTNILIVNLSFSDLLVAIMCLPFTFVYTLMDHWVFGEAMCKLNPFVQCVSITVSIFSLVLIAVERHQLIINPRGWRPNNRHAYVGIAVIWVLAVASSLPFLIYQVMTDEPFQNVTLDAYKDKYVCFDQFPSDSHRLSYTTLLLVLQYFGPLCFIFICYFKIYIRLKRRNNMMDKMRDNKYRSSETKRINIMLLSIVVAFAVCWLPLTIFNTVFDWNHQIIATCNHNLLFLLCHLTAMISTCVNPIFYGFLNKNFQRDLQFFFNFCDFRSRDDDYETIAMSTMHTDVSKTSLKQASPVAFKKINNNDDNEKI
The class given is cell membranes, Membrane. The settings on record: sk-n-mc.

Test [2] has as its target T2, Alpha-1D adrenergic receptor (Homo sapiens, UniProt P25100). Also: in other assays of this panel Not Active means under 50% inhibition at 10 µM.
T2 sequence (P25100 whole entry): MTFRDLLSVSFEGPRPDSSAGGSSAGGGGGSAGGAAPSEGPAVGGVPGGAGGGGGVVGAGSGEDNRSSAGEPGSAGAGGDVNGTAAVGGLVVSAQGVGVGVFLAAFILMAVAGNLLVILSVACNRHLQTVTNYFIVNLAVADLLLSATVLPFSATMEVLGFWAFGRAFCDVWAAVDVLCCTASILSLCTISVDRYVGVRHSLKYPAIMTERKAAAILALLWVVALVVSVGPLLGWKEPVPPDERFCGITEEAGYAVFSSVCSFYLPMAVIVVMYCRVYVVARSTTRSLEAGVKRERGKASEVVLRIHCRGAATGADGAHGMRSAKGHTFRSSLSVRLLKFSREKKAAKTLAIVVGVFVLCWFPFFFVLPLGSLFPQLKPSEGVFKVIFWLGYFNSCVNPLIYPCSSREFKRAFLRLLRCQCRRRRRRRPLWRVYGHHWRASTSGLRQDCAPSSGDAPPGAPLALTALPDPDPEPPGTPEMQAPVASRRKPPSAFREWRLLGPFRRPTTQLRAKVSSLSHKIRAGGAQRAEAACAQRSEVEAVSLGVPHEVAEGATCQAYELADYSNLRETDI
The class given is cell membranes, HEK293, Membrane. To be noted: hek293.

Test [3] concerns the target Adenosine receptor A2a (Homo sapiens, UniProt P29274). Kind of test: DRUGMATRIX: Adenosine A2A radioligand binding (ligand: […]). The class given is cell membranes, HEK293, Membrane. To be noted: Not Active = under 50% inhibition at 10 µM.
Test [4] addresses Prostaglandin G/H synthase 1 (Homo sapiens, UniProt P23219). The test is described as follows: biochemical. The class given is tissue-based, Platelet.
For test [5], the target named is T3, Cholecystokinin receptor type A (Homo sapiens, UniProt P32238). Also: in other assays of this panel Not Active means under 50% inhibition at 10 µM.
T3 sequence (P32238 whole entry): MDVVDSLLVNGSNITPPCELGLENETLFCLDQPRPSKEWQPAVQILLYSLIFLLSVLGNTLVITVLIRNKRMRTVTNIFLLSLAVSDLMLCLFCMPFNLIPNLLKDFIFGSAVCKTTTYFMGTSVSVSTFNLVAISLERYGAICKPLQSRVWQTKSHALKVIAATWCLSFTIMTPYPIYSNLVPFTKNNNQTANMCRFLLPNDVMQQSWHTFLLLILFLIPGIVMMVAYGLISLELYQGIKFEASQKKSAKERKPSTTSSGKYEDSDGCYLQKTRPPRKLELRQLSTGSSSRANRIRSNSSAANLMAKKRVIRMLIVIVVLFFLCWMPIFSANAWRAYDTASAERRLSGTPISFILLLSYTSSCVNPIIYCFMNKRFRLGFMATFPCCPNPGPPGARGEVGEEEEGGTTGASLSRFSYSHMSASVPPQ
The class given is cell membranes, Membrane. To be noted: 1321-n1.

Test [6] has as its target T4, 5-hydroxytryptamine receptor 1A (Rattus norvegicus, UniProt P19327). Also: in other assays of this panel Not Active means under 50% inhibition at 10 µM.
T4 sequence (P19327 whole entry): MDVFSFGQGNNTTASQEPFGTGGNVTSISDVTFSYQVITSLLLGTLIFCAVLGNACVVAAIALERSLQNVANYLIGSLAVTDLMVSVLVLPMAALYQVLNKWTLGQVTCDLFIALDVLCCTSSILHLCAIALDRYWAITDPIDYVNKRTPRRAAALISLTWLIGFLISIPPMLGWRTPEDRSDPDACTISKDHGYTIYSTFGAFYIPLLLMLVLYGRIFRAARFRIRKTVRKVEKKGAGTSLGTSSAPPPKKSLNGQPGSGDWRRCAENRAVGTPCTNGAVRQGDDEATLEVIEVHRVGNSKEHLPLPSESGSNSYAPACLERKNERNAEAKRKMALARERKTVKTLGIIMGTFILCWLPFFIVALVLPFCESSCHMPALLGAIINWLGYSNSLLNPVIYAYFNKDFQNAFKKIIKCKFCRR
Type of test: cell membranes, CHO-K1, Membrane.

Sequence of Adenosine receptor A2a (P29274 whole entry): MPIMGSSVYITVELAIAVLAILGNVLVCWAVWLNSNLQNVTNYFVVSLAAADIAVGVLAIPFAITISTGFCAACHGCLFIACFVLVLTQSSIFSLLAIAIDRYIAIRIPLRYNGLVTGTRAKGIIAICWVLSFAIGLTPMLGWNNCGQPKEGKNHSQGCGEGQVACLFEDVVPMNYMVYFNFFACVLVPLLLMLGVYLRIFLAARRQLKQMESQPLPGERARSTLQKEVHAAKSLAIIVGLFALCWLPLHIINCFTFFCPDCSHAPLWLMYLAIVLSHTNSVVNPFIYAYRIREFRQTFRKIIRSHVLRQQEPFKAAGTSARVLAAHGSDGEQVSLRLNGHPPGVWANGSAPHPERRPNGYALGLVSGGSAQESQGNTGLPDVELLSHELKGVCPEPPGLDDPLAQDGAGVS
Sequence of Prostaglandin G/H synthase 1 (P23219 whole entry): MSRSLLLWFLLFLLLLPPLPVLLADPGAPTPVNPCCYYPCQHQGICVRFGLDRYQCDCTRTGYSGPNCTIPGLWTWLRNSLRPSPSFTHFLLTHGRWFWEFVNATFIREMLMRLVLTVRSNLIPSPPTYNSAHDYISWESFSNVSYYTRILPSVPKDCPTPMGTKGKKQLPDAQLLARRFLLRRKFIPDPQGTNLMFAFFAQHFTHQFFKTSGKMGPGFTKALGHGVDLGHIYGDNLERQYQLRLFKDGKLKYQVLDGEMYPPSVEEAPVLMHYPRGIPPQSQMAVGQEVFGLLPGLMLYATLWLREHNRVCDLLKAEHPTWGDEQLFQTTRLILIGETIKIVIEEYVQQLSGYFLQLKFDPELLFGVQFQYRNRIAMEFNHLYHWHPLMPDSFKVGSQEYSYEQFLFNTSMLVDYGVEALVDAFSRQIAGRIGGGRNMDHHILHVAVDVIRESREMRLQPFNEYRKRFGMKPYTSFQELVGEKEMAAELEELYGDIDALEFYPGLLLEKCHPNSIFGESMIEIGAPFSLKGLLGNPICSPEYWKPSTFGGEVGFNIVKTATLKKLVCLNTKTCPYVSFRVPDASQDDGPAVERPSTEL

For `COC(=O)[C@H]1[C@H]2C[C@@H]3c4[nH]c5cc(OC)ccc5c4CCN3C[C@H]2C[C@@H](OC(=O)c2cc(OC)c(OC)c(OC)c2)[C@@H]1OC` [RESERPINE], the IC50 result in test [1], in test [2], in test [3] (hek293), in test [4] (platelet), in test [5] and in test [6] (cho-k1) was “Not Active” each time.
As for `O=C(O)c1ccccc1O` [SALICYLIC ACID], the IC50 entry in test [1], in test [2], in test [3] (hek293), in test [4] (platelet), in test [5] and in test [6] (cho-k1) was “Not Active” each time.
Regarding `C[S+]([O-])c1ccc(-c2nc(-c3ccncc3)c(-c3ccc(F)cc3)[nH]2)cc1` (stereo not given) [SB-203580], the IC50 entry in test [1] is “Not Active”; in test [2], “Not Active”; in test [3] (read-out: IC50), 6070 nM; in test [4] (platelet), “Not Active”; in test [5], “Not Active”; in test [6] (cho-k1), “Not Active”. For the same compound, the Ki in test [3] (read-out: Ki) is 3410 nM.
For the compound `CC1CCC(NC(=O)N(CCCl)N=O)CC1` (stereo not given) [SEMUSTINE], the IC50 entry in test [1], in test [2], in test [3] (hek293), in test [4] (platelet), in test [5] and in test [6] (cho-k1) was “Not Active” throughout.
Regarding `O=C1C[C@@H]2OCC=C3CN4CC[C@]56c7ccccc7N1[C@H]5[C@H]2[C@H]3C[C@H]46` [STRYCHNINE], the IC50 entry in test [1], in test [2], in test [3] (hek293), in test [4] (platelet), in test [5] and in test [6] (cho-k1) was “Not Active” each time.
Take `C[N+](C)(C)CCOC(=O)CCC(=O)OCC[N+](C)(C)C.[Cl-].[Cl-]` [SUCCINYLCHOLINE CHLORIDE]: the IC50 result in test [1], in test [2], in test [3] (hek293), in test [4] (platelet), in test [5] and in test [6] (cho-k1) was “Not Active” in each case.
`Nc1ccc(S(=O)(=O)NC(=O)c2ccccc2)cc1` [SULFABENZAMIDE]: the IC50 entry in test [1], in test [2], in test [3] (hek293), in test [4] (platelet), in test [5] and in test [6] (cho-k1) was “Not Active” each time.
Consider `CCCCCCCCNC(C)C(O)c1ccc(SC(C)C)cc1` (stereo not given) [SULOCTIDIL], for which the IC50 result in test [1] was “Not Active”; in test [2], “Not Active”; in test [3] (hek293), “Not Active”; in test [4] (platelet), “Not Active”; in test [5] it was “Not Active”; in test [6] (read-out: IC50) it was 544 nM. Further, the Ki in test [6] (read-out: Ki) is 311 nM.
For the compound `O=c1[nH]c(=O)n(C2CCCO2)cc1F` (stereo not given) [TEGAFUR], the IC50 entry in test [1], in test [2], in test [3] (hek293), in test [4] (platelet), in test [5] and in test [6] (cho-k1) was “Not Active” throughout.
On to `CC(=N)S` [THIOACETAMIDE], for which the IC50 result in test [1], in test [2], in test [3] (hek293), in test [4] (platelet), in test [5] and in test [6] (cho-k1) was “Not Active” each time.
On to `Cc1ccc(C(=O)c2ccc(CC(=O)O)n2C)cc1` [TOLMETIN], for which the IC50 result was “Not Active” in test [1]; “Not Active” in test [2]; “Not Active” in test [3] (hek293); 41 nM in test [4] (read-out: IC50); “Not Active” in test [5]; “Not Active” in test [6] (cho-k1).
As to `CC(=O)OCC(COC(C)=O)OC(C)=O` [TRIACETIN], the IC50 entry in test [1], in test [2], in test [3] (hek293), in test [4] (platelet), in test [5] and in test [6] (cho-k1) was “Not Active” throughout.
Consider `CN1CCN(CCCN2c3ccccc3Sc3ccc(C(F)(F)F)cc32)CC1` [TRIFLUOPERAZINE], for which the IC50 entry in test [1], in test [2], in test [3] (hek293), in test [4] (platelet), in test [5] and in test [6] (cho-k1) was “Not Active” throughout.
